Source: patent publication US7495127B2, “Potassium channel opener” (Mitsubishi Tanabe Pharma Corporation, priority 2001, dated 2009)

Tests used:
BKαβ1 [1] = molecular target: T1, BKαβ1 (Rattus norvegicus, UniProt Q62976); assay: Single-channel recording (inside-out patch clamp), HEK293 constantly expressing rat BKα+β1; format: cell-based; conditions: pCa 7.0, +40 mV
T1 construct: expressed in transfected cells; host or cells: HEK293
Method: According to the inside-out patch clamp technique, a single channel current was recorded on HEK293, in which rat BKα+β1 subunits were constantly expressed. All the experiments were carried out at 22-24° C.
Intracellular fluid (mM) 140 KCl, 1.2 MgCl2, 14 Glucose, 5 EGTA (the pCa was adjusted to 7 by adding a suitable amount of CaCl2 to stabilize the pCa). The pH was adjusted to 7.2 with NaOH.
Extracellular fluid (mM) 140 KCl, 4 MgCl2, 5 ATP, 10 HEPES, 0.05 EGTA. The pH was adjusted to 7.2 with KOH.
(§1) Since the test compounds were highly aliphatic, and hard to dissolve in water, they were dissolved by DMSO and preserved as 30 mM stock solutions. On administration, final concentration in the DMSO solutions were made at most 0.03%. Incidentally, DMSO was confirmed not to have any influence on BK currents, when its concentration is 0.3% or less.
In order to further confirm this point, a single channel current recording was carried out. The single channel current was recorded with respect to the cells in which BK(α+β1) channels were constantly expressed, by the inside-out patch clamp technique. The intracellular fluid (the fluid contacting the inner side of the cell membrane) was fixed at pCa 7.0. […] From these histograms, channel opening probability was calculated to show relation between the concentration and effect as shown in FIG. 5C.

BKαβ1 [2] = molecular target: T1, BKαβ1; assay: Whole-cell current recording (whole-cell patch clamp), HEK293 constantly expressing rat BKα+β1; format: cell-based; conditions: pCa 6.5, depolarization −60 mV to +10 mV
Method: According to the whole-cell patch clamp technique, whole-cell currents were recorded on HEK293 cell, in which rat BKα+β1 subunits were constantly expressed. All the experiments were carried out at 22-24° C.
Pipette solution (mM) 140 KCl, 4 MgCl2, 5 ATP, 10 HEPES, 5 EGTA (the pCa was adjusted to 6.5 by adding a suitable amount of CaCl2 to stabilize the pCa). The pH was adjusted to 7.2 with KOH.
Extracellular fluid (mM) 137 NaCl, 5.9 KCl, 2.2 CaCl2, 1.2 MgCl2, 14 Glucose, 10 HEPES. The pH was adjusted to 7.4 with NaOH.
as §1
The whole-cell currents were recorded with the cells in which BK(α+β1) channels were constantly expressed, by the whole-cell patch clamp technique. The Ca^2+ concentration in the intracellular fluid was fixed at pCa 6.5 with Ca^2+-EGTA buffer. The pulse depolarizing from the resting potential −60 mV to +10 mV, was added for 150 mseconds, and the elicited currents were observed. By the depolarizing stimulus, moderately activated outward currents were observed, which are characteristic of BK(α+β1) channel (control in FIG. 4B). After establishing the whole cell, the recording was started at a point where stable current measurements were obtained for 20 minutes. […] After that, by washout, the current went back almost to the level prior to application of the test compounds (FIG. 4A). As a result of a statistical analysis based on the recordings of the 4 examples, the currents were activated by 1.90±0.21 times at concentration of 100 nM, 2.54±0.14 times at 300 nM, and 6.37±0.91 times at 1 μm, by this activating effect.

BKα [3] = molecular target: T2, BKα (Rattus norvegicus, UniProt Q62976); assay: Membrane current recording by whole cell voltage-clamp, HEK293 cell expressing BKα channels; format: cell-based
T2 construct: expressed in transfected cells; host or cells: HEK293
Description: (§2) Calcium-activated potassium channel (hereinafter abbreviated as “BK channel” in Examples) functions with two kinds of proteins α (BKα) and β (BKβ) subunits being arranged in tetramers. BKα consists a main part of a channel and BKβ is an activity regulating factor. […] In accordance with a method of Ahring, et al. (Ahring P. K., et al., FEBS Lett., 415, pp. 67-70, 1997), cDNAs of BKα and BKβ1 genes derived from rat uterus smooth muscle (GenBank accession numbers; U55995 and AF020712) were introduced into HEK293 cells by using calcium phosphate coprecipitation transfection techniques, to constantly overexpress BKα or BKαβ.
(b) Membrane Current Recording by Whole Cell Voltage-Clamp Technique
Membrane current of the whole cell by opening of BKα channels was recorded by Whole cell voltage-clamp technique. This technique is frequently employed to analyze the functions shown by the ion channels expressed in numbers on a cell membrane as a whole, and is a well established technique (Hamil, O. P. the above mentioned reference).

BKαβ1 [4] = molecular target: T1, BKαβ1; assay: BK channel currents in single HEK293 cell expressing BK(α+β1) channels (HEKBKαβ1) under whole-cell voltage clamp; format: cell-based; conditions: 1 to 10 μm; pCa 6.5
Description: (§3) Effects of test compounds on BK channel currents were examined in single HEK293 cell expressing BK(α+β1) channels (hereinafter referred to as HEKBKαβ1) under whole-cell voltage clamp. The Ca^2+ concentration in the pipette solution was fixed at pCa 6.5 using a Ca^2+-EGTA buffer. Depolarization from −60 mV to +30 mV induced outward currents in both native HEK293 and HEKBKαβ1, but the current density was much higher in the latter (the current density at the peak: 11.0±1.8 and 95.2±20.9 pA/pF, n=5 and 6, respectively, p<0.05). […] This enhancement of outward current by pimaric acid could be removed completely by washout. Effects of other test compounds were also examined in this manner. The peak amplitude of outward current at +40 mV in the presence of 1, 3, and 10 μm resin acids was measured relative to the value taken just before the application (FIG. 6B).

BKαβ1 [5] = molecular target: T1, BKαβ1; assay: Concentration-dependent block of macroscopic currents by ChTX in HEKBKαβ1, in the absence and presence of pimaric acid; format: cell-based
Description: The outward currents elicited by depolarization from −60 mV in 10 mV steps were enhanced at potentials positive to −20 mV. The current at +40 mV was increased from 1214±153 to 2527±448 pA (n=5, p<0.05). […] The currents at +40 mV in the presence of 10 μm pimaric acid was reduced from 2527±448 pA to 499±90 pA (p<0.01 versus before the application of and in the presence of 10 μm pimaric acid). […] The normalized data were well fitted with the Hill equation modified for the concentration-response relationship. […] The relationship in the presence of 10 μm pimaric acid was almost identical with that in its absence.

BKα [6] = molecular target: T2, BKα; assay: Single channel current recording by inside-out patch clamp, BKα expressed on HEK293 cells; format: cell-based
Description: as §2
(a) Single Channel Current Recording by Inside-Out Patch Clamp Technique
By using Inside-out patch clamp technique, fragments of cell membrane containing the channels were isolated, and by artificially controlling an environment of inside of the cell membrane, opening or closing of a single channel can be directly observed. This is a fully established method not only for functional analysis of the channel, but also for testing quantitative effects of the channel agonists (Hamil, O. P., et al., Pflgers Archiv., 391, pp. 85-100, 1981).
Under this condition, action and effect of pimaric acid for BKα was measured.
In Current Amplitude, 0 pA means a closing state. […] In FIG. 3, a relation between a concentration of pimaric acid and an effect of BK channel activation is shown under this condition. By addition of pimaric acid at concentration of 3 μm or more, a significant increase in channel opening probability was confirmed.

native HEK293 = assay: Outward currents in native HEK293 under whole-cell voltage clamp; format: cell-based, human; conditions: 1 to 10 μm; pCa 6.5
Description: as §3

T1 sequence (Q62976 whole entry): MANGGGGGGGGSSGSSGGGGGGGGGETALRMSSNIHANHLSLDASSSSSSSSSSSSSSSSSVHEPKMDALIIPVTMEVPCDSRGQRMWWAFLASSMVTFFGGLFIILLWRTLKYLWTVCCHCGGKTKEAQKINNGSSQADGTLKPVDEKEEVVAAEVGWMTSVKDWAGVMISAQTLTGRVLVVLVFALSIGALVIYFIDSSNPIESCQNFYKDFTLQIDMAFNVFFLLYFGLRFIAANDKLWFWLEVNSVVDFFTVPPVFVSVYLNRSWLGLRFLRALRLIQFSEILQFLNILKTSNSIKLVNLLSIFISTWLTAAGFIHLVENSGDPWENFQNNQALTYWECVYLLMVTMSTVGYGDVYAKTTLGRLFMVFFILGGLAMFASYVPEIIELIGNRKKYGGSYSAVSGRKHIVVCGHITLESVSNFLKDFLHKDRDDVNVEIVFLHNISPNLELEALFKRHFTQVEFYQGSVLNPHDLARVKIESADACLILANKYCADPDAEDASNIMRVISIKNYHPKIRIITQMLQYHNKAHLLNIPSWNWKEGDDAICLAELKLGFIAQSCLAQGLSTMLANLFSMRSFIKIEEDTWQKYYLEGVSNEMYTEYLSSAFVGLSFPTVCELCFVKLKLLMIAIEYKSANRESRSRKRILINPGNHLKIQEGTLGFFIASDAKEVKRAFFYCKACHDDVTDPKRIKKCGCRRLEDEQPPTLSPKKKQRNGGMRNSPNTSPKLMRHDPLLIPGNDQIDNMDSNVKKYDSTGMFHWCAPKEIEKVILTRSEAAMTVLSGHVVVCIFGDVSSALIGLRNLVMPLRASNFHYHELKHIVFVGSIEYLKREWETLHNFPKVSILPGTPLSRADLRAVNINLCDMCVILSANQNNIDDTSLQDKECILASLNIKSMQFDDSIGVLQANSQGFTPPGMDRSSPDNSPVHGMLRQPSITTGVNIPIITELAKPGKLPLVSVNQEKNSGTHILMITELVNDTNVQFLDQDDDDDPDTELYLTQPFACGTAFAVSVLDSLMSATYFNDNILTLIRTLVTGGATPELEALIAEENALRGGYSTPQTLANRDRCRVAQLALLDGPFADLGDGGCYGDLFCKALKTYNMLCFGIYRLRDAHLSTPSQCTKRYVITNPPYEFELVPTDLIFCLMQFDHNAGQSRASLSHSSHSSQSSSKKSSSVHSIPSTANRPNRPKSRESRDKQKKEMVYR
T1 sequence (P97678 whole entry partner): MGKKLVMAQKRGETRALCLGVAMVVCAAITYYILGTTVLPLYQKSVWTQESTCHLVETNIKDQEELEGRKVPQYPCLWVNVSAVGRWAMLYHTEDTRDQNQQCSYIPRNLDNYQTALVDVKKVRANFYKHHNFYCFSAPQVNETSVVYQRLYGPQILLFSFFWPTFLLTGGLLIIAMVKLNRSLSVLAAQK
T2 sequence (Q62976 whole entry): as the sequence (Q62976 whole entry) above

Molecule: CC(C)c1c(Cl)cc2c(c1Cl)CC[C@H]1[C@](C)(C(=O)O)CCC[C@]21C [dichlorodehydroabietic acid]
- concentration at which channel activation was observed (BKαβ1 [1]; applied to inner side of cell membrane): ≥ 100 nM
- relation between concentration and channel opening probability (BKαβ1 [1]): concentration-dependent
- activation of whole-cell current (BKαβ1 [2]; 100 nM): 1.90±0.21 times
- activation of whole-cell current (BKαβ1 [2]; 300 nM): 2.54±0.14 times
- activation of whole-cell current (BKαβ1 [2]; 1 μm): 6.37±0.91 times

Molecule: CC[N+](CC)(CC)CC [tetraethylammonium, reference compound]
- inhibition of the action of pimaric acid on BKα current (BKα [3]; 1 mM tetraethylammonium): completely inhibited

Molecule: C=C[C@@]1(C)C=C2CC[C@@H]3[C@](C)(CCC[C@@]3(C)C(=O)O)[C@H]2CC1 [pimaric acid]
- increase of BKα current (BKα [3]; 1 μm added to extracellular fluid, +60 mV): about 50%
- outward currents in HEKBKαβ1 (BKαβ1 [4]): increased outward currents in a dose-dependent fashion
- effect on the binding of ChTX to BK channels (BKαβ1 [5]; 10 μm pimaric acid): does not affect the binding of ChTX to BK channels
- outward current at +40 mV (BKαβ1 [5]; 10 μm pimaric acid, control 1214±153 pA): 2527±448 pA
- activation of whole-cell current (BKαβ1 [2]; 1 μm): 1.92±0.24 times
- increase of opening probability (BKα [6]; 1 μM, Ca of inner side 0.3 μm, patch membrane potential +40 mV): increased by three times
- time of an opening state (histograms of 30 s current recordings) (BKα [6]; 1 μm or 10 μm, +40 mV, Ca 0.1 μM): increased time of an opening state
- concentration giving a significant increase in channel opening probability (BKα [6]; +40 mV, Ca 0.1 μM): ≥ 3 μm
- channel activity (BKα single channel) (BKα [6]; added to solution of inner side of cell membrane at 10 μm or less, +40 mV, Ca 0.1 μM): significantly increased
- BK channel opening effect relative to NS-1619 (BKα [6]; comparison with known compound): ≥ 10 times
- BK channel opening effect relative to maxikdiol described in the reference (BKα [6]; comparison with literature value): at least three times or more
- outward currents in native HEK293 (native HEK293): did not change

Molecule: charybdotoxin [ChTX]
- current amplitude at +40 mV after ChTX (BKαβ1 [5]; 100 nM ChTX in the absence of pimaric acid, before 1233±226 pA): 205±46 pA
- outward current at +40 mV after ChTX (BKαβ1 [5]; 100 nM ChTX in the presence of 10 μm pimaric acid, before 2527±448 pA): 499±90 pA
- C (constant; native K+ currents insensitive to ChTX) (BKαβ1 [5]; absence of pimaric acid): 0.077±0.0226
- nH (Hill coefficient) (BKαβ1 [5]; absence of pimaric acid): 0.847±0.034
- C (constant; native K+ currents insensitive to ChTX) (BKαβ1 [5]; presence of 10 μm pimaric acid): 0.0965±0.0388
- nH (Hill coefficient) (BKαβ1 [5]; presence of 10 μm pimaric acid): 0.982±0.161
